Experimental data taken from a flash point compilation (Sun et al. 2020).

Structure (SMILES)	flash point
CCCOC(=O)c1cc(O)c(O)c(O)c1 [propyl 3,4,5-trihydroxybenzoate]	187.00 °C
CCCOC(C)=O [propyl acetate]	14.00 °C
CCCc1ccccc1 [propylbenzene]	48.00 °C
Nc1ccccn1 [pyridin-2-amine]	92.00 °C
NNC(=O)c1ccncc1 [pyridine-4-carbohydrazide]	190.00 °C
C=Cc1ccccc1 [styrene]	31.00 °C
CC(C)(C)c1ccccc1 [tert-butylbenzene]	60.00 °C
CCCCCCCCCCCCCC [tetradecane]	100.00 °C
C[Si](C)(C)C [tetramethylsilane]	-27.00 °C
C1CCSC1 [thiolane]	13.00 °C
CCCCOB(OCCCC)OCCCC [tributyl borate]	93.00 °C
Cl[Si](Cl)(Cl)C1CCCCC1 [trichloro(cyclohexyl)silane]	91.00 °C
CCCCCCCCCCCCCCCC[Si](Cl)(Cl)Cl [trichloro(hexadecyl)silane]	146.00 °C
CCCCCCCCCCCCCCCCCC[Si](Cl)(Cl)Cl [trichloro(octadecyl)silane]	89.00 °C
CCCCC[Si](Cl)(Cl)Cl [trichloro(pentyl)silane]	63.00 °C
C=CC[Si](Cl)(Cl)Cl [trichloro(prop-2-enyl)silane]	35.00 °C
Clc1ccc([Si](Cl)(Cl)Cl)cc1Cl [trichloro-(3,4-dichlorophenyl)silane]	141.00 °C

Structure (SMILES)	flash point
ClC(Cl)(Cl)c1ccccc1 [trichloromethylbenzene]	127.00 °C
C1=CC2C3C=CC(C3)C2C1 (stereo unspecified) [tricyclo[5.2.1.02,6]deca-3,8-diene]	32.00 °C
C=CCCCCCCCCCCC [tridec-1-ene]	79.00 °C
CCCCCCCCCCCC(C)=O [tridecan-2-one]	107.00 °C
C[CH2][Al]([CH2]C)[CH2]C [triethylalumane]	-53.00 °C
CCB(CC)CC [triethylborane]	-36.00 °C
O=P(Oc1ccccc1)(Oc1ccccc1)Oc1ccccc1 [triphenyl phosphate]	220.00 °C
c1ccc(P(c2ccccc2)c2ccccc2)cc1 [triphenylphosphane]	180.00 °C
CC(C)OB(OC(C)C)OC(C)C [tripropan-2-yl borate]	28.00 °C
Cc1ccc(OP(=O)(Oc2ccc(C)cc2C)Oc2ccc(C)cc2C)c(C)c1 [tris(2,4-dimethylphenyl) phosphate]	232.00 °C
O=P(OCCCl)(OCCCl)OCCCl [tris(2-chloroethyl) phosphate]	232.00 °C
CCCCC(CC)COP(OCC(CC)CCCC)OCC(CC)CCCC (stereo unspecified) [tris(2-ethylhexyl) phosphite]	171.00 °C
CC(C)[CH2][Al]([CH2]C(C)C)[CH2]C(C)C [tris(2-methylpropyl)alumane]	-23.00 °C
Cc1ccc(OP(=O)(Oc2ccc(C)cc2)Oc2ccc(C)cc2)cc1 [tris(4-methylphenyl) phosphate]	210.00 °C
CCCCCCCCCCCO [undecan-1-ol]	93.00 °C
S=C([S-])NCCNC(=S)[S-].[Zn+2] [zinc;N-[2-(sulfidocarbothioylamino)ethyl]carbamodithioate]	90.00 °C
CCCCCCCCCCCCCCCCCC(=O)[O-].CCCCCCCCCCCCCCCCCC(=O)[O-].[Zn+2] [zinc;octadecanoate]	277.00 °C

Remark: another data set of the same source

Structure (SMILES)	flash point
C[C@@H]1CCCC[C@H]1O (relative stereo) [trans-2-methylcyclohexanol]	59 °C
CC(Cl)Cl [1,1-dichloroethane]	-10 °C
CCOC(CC)OCC [1,1-diethoxypropane]	13 °C
COC(C)OC [1,1-dimethoxyethane]	-17 °C
CC1(C)CCCCC1 [1,1-dimethylcyclohexane]	7 °C
Cc1ccc(C)c(C)c1C [1,2,3,4-tetramethylbenzene]	68 °C
Cc1ccc(C)c(C)c1 [1,2,4-trimethylbenzene]	46 °C
CCC(O)CO (stereo unspecified) [1,2-butanediol]	93 °C
Clc1ccccc1Cl [1,2-dichlorobenzene]	68 °C
CCC(Cl)CCl (stereo unspecified) [1,2-dichlorobutane]	27 °C
ClCCCl [1,2-dichloroethane]	13 °C
CC(Cl)CCl (stereo unspecified) [1,2-dichloropropane]	13 °C
Cc1ccc(F)cc1C [1,2-dimethyl-4-fluorobenzene]	40 °C
OCCO [1,2-ethanediol]	108 °C
CCCCC(O)CO (stereo unspecified) [1,2-hexanediol]	122 °C
CCCC(O)CO (stereo unspecified) [1,2-pentanediol]	105 °C
CC(N)CN (stereo unspecified) [1,2-propanediamine]	33 °C
C1=CC=CC=CC=C1 [1,3,5,7-cyclooctatetraene]	22 °C
Clc1cccc(Cl)c1 [1,3-dichlorobenzene]	63 °C
CC(C)c1cccc(C(C)C)c1 [1,3-diisopropylbenzene]	76 °C
NCCCN [1,3-propanediamine]	48 °C
C1COCCO1 [1,4-dioxane]	11 °C
OCCCCCO [1,5-pentanediol]	129 °C
SCCCCCS [1,5-pentanedithiol]	95 °C

Structure (SMILES)	flash point
C=CCCCCCC=C [1,8-nonadiene]	26 °C
CC(O)CN (stereo unspecified) [1-amino-2-propanol]	67 °C
CCc1cccc(Br)c1 [1-bromo-3-ethylbenzene]	71 °C
CCCCCCCBr [1-bromoheptane]	61 °C
CCCCCCCCBr [1-bromooctane]	78 °C
CCCCCBr [1-bromopentane]	30 °C
CCCCO [1-butanol]	34 °C
CCCCCC#CCCCCl [1-chloro-4-decyne]	87 °C
CCCCCCCCCCCl [1-chlorodecane]	83 °C
CCCCCCCCCl [1-chlorooctane]	58 °C
CCCCCCCCCCS [1-decanethiol]	99 °C
C=CCCCCCCCC [1-decene]	38 °C
CCC1(C)CCCC1 [1-ethyl-1-methylcyclopentane]	6 °C
C=CCCCCC [1-heptene]	-9 °C
C#CCCCCC [1-heptyne]	-2 °C
CCCCCCO [1-hexanol]	59 °C
C=CCCCC [1-hexene]	-26 °C
C#CCCCC [1-hexyne]	-20 °C
CCCCI [1-iodobutane]	33 °C
CCC[N+](=O)[O-] [1-nitropropane]	34 °C
CCCCCCCCCO [1-nonanol]	98 °C
C#CCCCCCC [1-octyne]	16 °C
C=CCCCCCCCCCCCCC [1-pentadecene]	113 °C
